Test systems include BT-549 breast; HCT-116 colon; HCT-15 colon; K-562 leukemia; LOX IMVI melanoma; M14 melanoma; MCF7 breast; OVCAR-4 ovarian; UACC-62 melanoma; EKVX NSCLC; HCC-2998 colon.
Holding throughout (assay): growth of human tumour cells (NCI), 48 h

The values below come from PubChem BioAssay (NCI).

Molecules are shown by their SMILES.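 Exposure lasted 48 hours, with cells grown in 96-well plates and compounds tested at five concentrations. TGI is the concentration that stops growth completely.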 Bounds are passed on as bounds.

Turning to `Cc1ccc(C(=O)CC(Cl)=C(Cl)Cl)cc1`, the TGI with BT-549 breast, with HCT-116 colon, in the experiment on HCT-15 colon, with K-562 leukemia, with LOX IMVI melanoma and with M14 melanoma was above 100 µM in each case. Besides, the TGI in the experiment on MCF7 breast, in the experiment on OVCAR-4 ovarian and in the experiment with UACC-62 melanoma was above 100 µM throughout.
For `O=c1nc2n(cc1/C=C\Br)C1CC(O)C(CO2)O1` (stereo not drawn), the TGI in the experiment with BT-549 breast, in the experiment on EKVX NSCLC, in the experiment on HCC-2998 colon, in the experiment with HCT-116 colon, in the experiment with HCT-15 colon and in the experiment with K-562 leukemia was above 100 µM throughout. For the same molecule, the TGI in the experiment on LOX IMVI melanoma, with MCF7 breast, in the experiment with OVCAR-4 ovarian and in the experiment on UACC-62 melanoma was above 100 µM throughout.
On to `Oc1cc(Cl)cc2cc(Br)cnc12`, for which the TGI is above 100 µM in the experiment on BT-549 breast; above 64.2 µM in the experiment with EKVX NSCLC; above 73.9 µM in the experiment with HCC-2998 colon; above 100 µM with HCT-116 colon; above 100 µM with HCT-15 colon; above 22.6 µM in the experiment with K-562 leukemia. Further, the TGI in the experiment on M14 melanoma is 6 µM; in the experiment on MCF7 breast it was above 29.9 µM; in the experiment on OVCAR-4 ovarian, above 100 µM; in the experiment with UACC-62 melanoma, above 77.6 µM.
`COC(=O)NCCc1[nH]nc2c1C(=O)C=C(OC)C2=O`: the TGI is 44.5 µM in the experiment with EKVX NSCLC; above 100 µM with HCC-2998 colon; 32.6 µM with HCT-116 colon; 71.6 µM in the experiment on HCT-15 colon; 37.3 µM with K-562 leukemia; 33.7 µM with LOX IMVI melanoma. Besides, the TGI with M14 melanoma amounted to 33.9 µM; in the experiment on MCF7 breast it was 48.1 µM; with OVCAR-4 ovarian it was 35.5 µM; with UACC-62 melanoma, 48.7 µM.
As to `CO/N=C1\CCC2(O)C3Cc4ccc(O)c5c4C2(CCN3CC2CC2)[C@H]1O5` (stereo partly drawn), the TGI in the experiment on BT-549 breast, with EKVX NSCLC, with HCT-116 colon, with HCT-15 colon, with K-562 leukemia and with LOX IMVI melanoma was above 100 µM each time. For the same molecule, the TGI in the experiment on M14 melanoma, with MCF7 breast, in the experiment with OVCAR-4 ovarian and with UACC-62 melanoma was above 100 µM throughout.
For `COC1=CC(=O)C(O)=C(C[C@@]2(C)[C@@H]3CCC[C@H](COC(=O)CCCCCNC(=O)OC(C)(C)C)[C@@]3(C)CC[C@@H]2C)C1=O`, the TGI in the experiment with EKVX NSCLC, in the experiment with HCT-116 colon, in the experiment on K-562 leukemia, with LOX IMVI melanoma, with M14 melanoma and in the experiment with MCF7 breast was above 10 µM throughout. In the experiment on OVCAR-4 ovarian, this molecule displayed a TGI above 10 µM.
As to `COC1(OC)N=C(N)C2(C#N)C(C)CC(=O)N(N(C)C)C12C#N` (stereo not drawn), the TGI in the experiment on EKVX NSCLC, with HCC-2998 colon, with HCT-116 colon, in the experiment with HCT-15 colon, in the experiment with K-562 leukemia and in the experiment with LOX IMVI melanoma was above 100 µM in each case. The TGI in the experiment on M14 melanoma, with MCF7 breast and with UACC-62 melanoma was above 100 µM each time.
On to `O=C(O)Cc1ccc(N2N=C(c3ccccc3)CC2=O)cc1`, for which the TGI in the experiment on BT-549 breast, in the experiment with EKVX NSCLC, in the experiment on HCC-2998 colon, in the experiment with HCT-116 colon, with HCT-15 colon and with K-562 leukemia was above 100 µM throughout. Moreover, the TGI in the experiment with M14 melanoma, in the experiment with MCF7 breast, with OVCAR-4 ovarian and in the experiment on UACC-62 melanoma was above 100 µM in each case.
Consider `Cc1cc(C)c2c(n1)S(=O)(=O)N(CCCN1CCN(c3cccc(C(F)(F)F)c3)CC1)/C(=C(\O)c1ccccc1)C2=O`, for which the TGI was 57.3 µM in the experiment on BT-549 breast; 37.6 µM with EKVX NSCLC; 18.3 µM in the experiment on HCT-116 colon; 67 µM in the experiment on HCT-15 colon; above 100 µM in the experiment on K-562 leukemia; 11.3 µM with LOX IMVI melanoma. Further, the TGI is above 100 µM in the experiment on M14 melanoma, 56.7 µM in the experiment with MCF7 breast, 63.9 µM in the experiment with OVCAR-4 ovarian and 27.6 µM in the experiment on UACC-62 melanoma.
In the case of `CC1=C(C2=C(C)C(=O)C(=O)c3cc(C)ccc32)c2ccc(C)cc2C(=O)C1=O`, the TGI was 0.374 µM with BT-549 breast; 0.686 µM in the experiment with EKVX NSCLC; 0.298 µM in the experiment with HCC-2998 colon; 1 µM in the experiment on HCT-116 colon; above 100 µM with HCT-15 colon; above 100 µM in the experiment on LOX IMVI melanoma. For the same molecule, the figures for the TGI in the experiment on M14 melanoma and in the experiment on UACC-62 melanoma were 0.349 µM and 0.381 µM, respectively.
Regarding `CCOC(=O)CCC(C(=O)OCC)n1nc2ccc(Nc3c(C)[n+]([O-])c4cc(Cl)ccc4[n+]3[O-])cc2n1` (stereo not drawn), the TGI with BT-549 breast, with EKVX NSCLC, in the experiment on HCT-116 colon, in the experiment on HCT-15 colon, in the experiment on K-562 leukemia and in the experiment with LOX IMVI melanoma was above 100 µM each time. The TGI with M14 melanoma, in the experiment on MCF7 breast, in the experiment on OVCAR-4 ovarian and with UACC-62 melanoma was above 100 µM in each case.
Consider `COC(=O)[C@H]1[C@H](C(=O)OC)[C@@H](C)c2c(ccc3c2[nH]c2ccccc23)[C@@H]1C`, for which the TGI in the experiment with BT-549 breast, in the experiment on EKVX NSCLC, in the experiment on HCT-116 colon, in the experiment on HCT-15 colon, in the experiment on K-562 leukemia and in the experiment on LOX IMVI melanoma was above 100 µM throughout. Further, the TGI in the experiment with M14 melanoma, in the experiment with MCF7 breast, in the experiment on OVCAR-4 ovarian and in the experiment with UACC-62 melanoma was above 100 µM each time.
With `OC(c1cccs1)c1cc2ccccc2s1` (stereo not drawn), the TGI with EKVX NSCLC, in the experiment on HCC-2998 colon, in the experiment with HCT-116 colon, with HCT-15 colon, in the experiment with K-562 leukemia and in the experiment on LOX IMVI melanoma was above 10 µM each time. Moreover, the TGI in the experiment with M14 melanoma, in the experiment with MCF7 breast, in the experiment with OVCAR-4 ovarian and in the experiment on UACC-62 melanoma was above 10 µM throughout.
With `CCOC(=O)c1c(C)n(Cc2ccccc2)c2c1cc(O)c1[nH]c3c(c12)CCCC3`, the TGI is 24.6 µM in the experiment with BT-549 breast; 8.12 µM in the experiment on EKVX NSCLC; 27.8 µM with HCT-116 colon; 13.9 µM in the experiment on HCT-15 colon; 10.9 µM in the experiment on K-562 leukemia; 16.8 µM with LOX IMVI melanoma. For the same molecule, the TGI with M14 melanoma turned out to be 20.9 µM; in the experiment on MCF7 breast, 13.3 µM; with OVCAR-4 ovarian, 4.08 µM; in the experiment on UACC-62 melanoma, 4.32 µM.
